ChEMBL document CHEMBL1795338, “Identification of pentacyclic triterpenes derivatives as potent inhibitors against glycogen phosphorylase based on 3D-QSAR studies” (Eur J Med Chem, 2011)

What follows are compounds tested against T1, Glycogen phosphorylase, muscle form (Oryctolagus cuniculus, UniProt P00489) (assay: Inhibition of rabbit muscle glycogen phosphorylase A assessed as release of phosphate from glucose-1-phosphate after 25 mins by microplate reader based method).
T1 sequence (P00489 whole entry): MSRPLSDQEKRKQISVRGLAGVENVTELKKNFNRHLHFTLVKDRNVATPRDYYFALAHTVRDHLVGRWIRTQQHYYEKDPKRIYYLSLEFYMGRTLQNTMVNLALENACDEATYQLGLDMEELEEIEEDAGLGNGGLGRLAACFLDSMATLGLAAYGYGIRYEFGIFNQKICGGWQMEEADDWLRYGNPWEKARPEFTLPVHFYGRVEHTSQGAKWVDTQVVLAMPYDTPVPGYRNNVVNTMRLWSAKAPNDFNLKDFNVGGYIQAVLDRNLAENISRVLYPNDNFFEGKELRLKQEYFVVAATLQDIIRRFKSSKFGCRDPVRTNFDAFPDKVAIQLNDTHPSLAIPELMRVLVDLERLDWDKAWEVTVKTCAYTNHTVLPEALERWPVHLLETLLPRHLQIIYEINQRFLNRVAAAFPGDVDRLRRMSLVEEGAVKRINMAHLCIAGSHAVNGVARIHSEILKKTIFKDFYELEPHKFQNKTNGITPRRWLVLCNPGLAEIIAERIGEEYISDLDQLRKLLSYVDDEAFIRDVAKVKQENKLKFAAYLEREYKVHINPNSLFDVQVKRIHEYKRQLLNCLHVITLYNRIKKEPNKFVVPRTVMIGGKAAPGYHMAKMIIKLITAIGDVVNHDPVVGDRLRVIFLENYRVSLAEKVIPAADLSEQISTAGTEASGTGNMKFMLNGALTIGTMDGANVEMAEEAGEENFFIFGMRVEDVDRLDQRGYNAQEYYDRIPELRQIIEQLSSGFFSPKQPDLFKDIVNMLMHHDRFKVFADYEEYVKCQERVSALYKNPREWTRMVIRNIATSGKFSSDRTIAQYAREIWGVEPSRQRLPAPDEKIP
An IC50 of 6.59 µM was found for `CC1(C)CC[C@]2(C(=O)OCc3ccccc3)CC[C@]3(C)C(=CC[C@@H]4[C@@]5(C)C[C@H](O)[C@@H](O)C(C)(C)[C@@H]5CC[C@]43C)[C@@H]2C1` in this work.
An IC50 of 18.6 µM was found for `CC(=O)O[C@@H]1O[C@H](OC(=O)[C@]23CCC(C)(C)C[C@H]2C2=CC[C@@H]4[C@@]5(C)C[C@@H](O)[C@H](O)C(C)(C)[C@@H]5CC[C@@]4(C)[C@]2(C)CC3)[C@@H](OC(C)=O)[C@H](OC(C)=O)[C@H]1OC(C)=O` in this work.
An IC50 of 10.5 µM was found for `CCC(=O)O[C@@H]1C[C@]2(C)[C@H]3CC=C4[C@@H]5CC(C)(C)CC[C@]5(C(=O)O)CC[C@@]4(C)[C@]3(C)CC[C@H]2C(C)(C)[C@H]1OC(=O)CC` in this work.
An IC50 of 25.2 µM was found for `CCCC(=O)O[C@@H]1C[C@]2(C)[C@H]3CC=C4[C@@H]5CC(C)(C)CC[C@]5(C(=O)O)CC[C@@]4(C)[C@]3(C)CC[C@H]2C(C)(C)[C@H]1OC(=O)CCC` in this work.
An IC50 of 1.25 µM was found for `C[C@H]1[C@H](C)CC[C@]2(C(=O)OCc3ccccc3)CC[C@]3(C)C(=CC[C@@H]4[C@@]5(C)C[C@H](O)[C@@H](O)C(C)(C)[C@@H]5CC[C@]43C)[C@H]12` in this work.
An IC50 of 23.9 µM was found for `COC(=O)[C@H](Cc1ccccc1)NC(=O)[C@]12CC[C@@H](C)[C@H](C)[C@H]1C1=CC[C@@H]3[C@@]4(C)C[C@@H](OC(C)=O)[C@H](OC(C)=O)C(C)(C)[C@@H]4CC[C@@]3(C)[C@]1(C)CC2` in this work.
An IC50 of 11.2 µM was found for `COC(=O)[C@H](Cc1ccc(O)cc1)NC(=O)[C@]12CC[C@@H](C)[C@H](C)[C@H]1C1=CC[C@@H]3[C@@]4(C)C[C@@H](OC(C)=O)[C@H](OC(C)=O)C(C)(C)[C@@H]4CC[C@@]3(C)[C@]1(C)CC2` in this work.
An IC50 of 3.07 µM was found for `CC1(C)CC[C@]2(C(=O)O)CC[C@]3(C)[C@H]([C@@H](O)C[C@@H]4[C@@]5(C)CC[C@H](O)C(C)(C)[C@@H]5CC[C@]43C)[C@@H]2C1` in this work.
An IC50 of 6.54 µM was found for `CC1(C)CC[C@]2(C(=O)OCc3ccccc3)CC[C@]3(C)[C@H]([C@@H](O)C[C@@H]4[C@@]5(C)CC[C@H](O)C(C)(C)[C@@H]5CC[C@]43C)[C@@H]2C1` in this work.
An IC50 of 5.35 µM was found for `CC1(C)CC[C@]2(C(=O)OCc3ccccc3)CC[C@]3(C)[C@H]([C@H](O)C[C@@H]4[C@@]5(C)CC[C@H](O)C(C)(C)[C@@H]5CC[C@]43C)[C@@H]2C1` in this work.
An IC50 of 62.6 µM was found for `CC1(C)CC[C@]2(C(=O)OCC(=O)O)CC[C@]3(C)C(=CC[C@@H]4[C@@]5(C)CC[C@H](O)C(C)(C)[C@@H]5CC[C@]43C)[C@@H]2C1` in this work.
An IC50 of 76.7 µM was found for `CCOC(=O)CCCOC(=O)[C@]12CCC(C)(C)C[C@H]1C1=CC[C@@H]3[C@@]4(C)CC[C@H](O)C(C)(C)[C@@H]4CC[C@@]3(C)[C@]1(C)CC2` in this work.
An IC50 of 53.2 µM was found for `CNCCOC(=O)[C@]12CCC(C)(C)C[C@H]1C1=CC[C@@H]3[C@@]4(C)CC[C@H](O)C(C)(C)[C@@H]4CC[C@@]3(C)[C@]1(C)CC2` in this work.
An IC50 of 188 µM was found for `C[C@H]1[C@H](C)CC[C@]2(C(=O)OCC(=O)O)CC[C@]3(C)C(=CC[C@@H]4[C@@]5(C)CC[C@H](O)C(C)(C)[C@@H]5CC[C@]43C)[C@H]12` in this work.
An IC50 of 4.1 µM was found for `CCOC(=O)COC(=O)[C@]12CC[C@@H](C)[C@H](C)[C@H]1C1=CC[C@@H]3[C@@]4(C)CC[C@H](O)C(C)(C)[C@@H]4CC[C@@]3(C)[C@]1(C)CC2` in this work.
An IC50 of 3.3 µM was found for `CC1(C)CC[C@]2(C(=O)O)CC[C@]3(C)C(=CC[C@@H]4[C@@]5(C)CC[C@H](OC(=O)/C=C\c6ccc(Cl)cc6)C(C)(C)[C@@H]5CC[C@]43C)[C@@H]2C1` in this work.
An IC50 of 16.9 µM was found for `COc1ccc(/C=C\C(=O)O[C@H]2CC[C@]3(C)[C@H]4CC=C5[C@@H]6CC(C)(C)CC[C@]6(C(=O)O)CC[C@@]5(C)[C@]4(C)CC[C@H]3C2(C)C)cc1` in this work.
An IC50 of 53.5 µM was found for `CC1(C)CC[C@]2(C(=O)O)CC[C@]3(C)C(=CC[C@@H]4[C@@]5(C)CCC(=O)[C@@](C)(CO)[C@@H]5CC[C@]43C)[C@@H]2C1` in this work.
An IC50 of 225 µM was found for `CC1(C)CC[C@]2(C(=O)O)CC[C@]3(C)C(=CC[C@@H]4[C@@]5(C)CC/C(=N\O)C(C)(C)[C@@H]5CC[C@]43C)[C@@H]2C1` in this work.
An IC50 of 20.8 µM was found for `CC1(C)CC[C@]2(C(=O)OCc3ccccc3)CC[C@]3(C)C(=CC[C@@H]4[C@@]5(C)CC/C(=N\O)C(C)(C)[C@@H]5CC[C@]43C)[C@@H]2C1` in this work.
An IC50 of 13.3 µM was found for `CC(=O)O[C@@H]1C[C@]2(C)[C@H]3CC=C4[C@@H]5CC(C)(C)CC[C@]5(C(=O)O)CC[C@@]4(C)[C@]3(C)CC[C@H]2C(C)(C)[C@H]1OC(C)=O` in this work.
An IC50 of 27.6 µM was found for `C[C@H]1[C@H](C)CC[C@]2(C(=O)O)CC[C@]3(C)C(=CC[C@@H]4[C@@]5(C)CC[C@H](OC(=O)CCC(=O)O)C(C)(C)[C@@H]5CC[C@]43C)[C@H]12` in this work.
An IC50 of 14 µM was found for `CC1(C)CC[C@]2(C(=O)O)CC[C@]3(C)C(=CC[C@@H]4[C@@]5(C)Cc6nc7ccccc7nc6C(C)(C)[C@@H]5CC[C@]43C)[C@@H]2C1` in this work.
An IC50 of 25.1 µM was found for `CC1(C)CC[C@]2(C(=O)O)CC[C@]3(C)C(=CC[C@@H]4[C@@]5(C)Cc6nccnc6C(C)(C)[C@@H]5CC[C@]43C)[C@@H]2C1` in this work.
An IC50 of 103 µM was found for `CC1(C)CC[C@]2(C(=O)O)CC[C@]3(C)C(=CC[C@@H]4[C@@]5(C)C[C@@H](O)[C@H](O)[C@@](C)(CO)[C@@H]5CC[C@]43C)[C@@H]2C1` [ARJUNOLIC ACID] in this work.
An IC50 of 21.7 µM was found for `CC1(C)CC[C@]2(C(=O)OCc3ccccc3)CC[C@]3(C)C(=CC[C@@H]4[C@@]5(C)C[C@H](O)[C@H](O)C(C)(C)[C@@H]5CC[C@]43C)[C@@H]2C1` [BENZYL AUGUSTATE] in this work.
An IC50 of 33.7 µM was found for `COC(=O)[C@]12CC[C@@H](C)[C@H](C)[C@H]1C1=CC[C@@H]3[C@@]4(C)C[C@@H](O)[C@H](O)C(C)(C)[C@@H]4CC[C@@]3(C)[C@]1(C)CC2` [COROSOLIC ACID METHYL ESTER] in this work.
An IC50 of 131 µM was found for `CC(=O)O[C@H]1CC[C@]2(C)[C@H]3CC=C4[C@@H]5[C@@H](C)[C@H](C)CC[C@]5(C(=O)O)CC[C@@]4(C)[C@]3(C)CC[C@H]2C1(C)C` [O-ACETYLURSOLIC ACID] in this work.
An IC50 of 34.3 µM was found for `CC1(C)CC[C@]2(C(=O)O)CC[C@]3(C)C(=CC[C@@H]4[C@@]5(C)CC[C@H](OC(=O)CCC(=O)O)C(C)(C)[C@@H]5CC[C@]43C)[C@@H]2C1` [OLEANOLIC ACID 3-O-SUCCINATE] in this work.
